Among the test systems are BT-549 breast; HS 578T breast; K-562 leukemia; LOX IMVI melanoma; NCI-H23 lung; NCI-H522 lung; OVCAR-5 ovarian; SF-539 CNS; SK-MEL-5 melanoma; U251 CNS.
Common to all, as to test: growth of human tumour cells (NCI), 48 h

The structures appear in SMILES notation. “And” between values parts separate entries of the source, which are not always exact repeats. Equal entries are not always repeated.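 Step 1: Grow cells in 96-well plates. Step 2: Expose to compound for 48 hours at 5 concentrations. Step 3: Interpolate endpoints linearly; if unreached, use highest concentration. GI50 marks 50% less growth. TGI: concentration producing complete growth inhibition.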

As to `COc1cc([C@@H]2c3cc4c(cc3[C@H](O)[C@H]3COC(=O)[C@@H]23)OCO4)cc(OC)c1OC`, the GI50 in the test with BT-549 breast is 632 nM and 259 nM; in the test with HS 578T breast it was 298 nM and 293 nM; with K-562 leukemia, 349 nM and 405 nM; in the test with LOX IMVI melanoma, 460 nM and 623 nM; in the test on NCI-H23 lung it was 780 nM and 239 nM; in the test on NCI-H522 lung it was 244 nM and 281 nM. The GI50 was 0.721 µM in the test with OVCAR-5 ovarian; 256 nM and 94 nM in the test on SF-539 CNS; 351 nM and 35.5 nM with SK-MEL-5 melanoma; 460 nM and 382 nM in the test with U251 CNS. Moreover, the TGI with BT-549 breast is greater than 42.5 µM; with HS 578T breast, greater than 5.83 µM; in the test with K-562 leukemia, greater than 100 µM; in the test with LOX IMVI melanoma it was greater than 100 µM; in the test on NCI-H23 lung, greater than 100 µM; in the test with OVCAR-5 ovarian, greater than 100 µM. Also, the TGI in the test on SF-539 CNS was 876 nM and 400 nM; with SK-MEL-5 melanoma, 1.8 µM and 0.254 µM; in the test with U251 CNS, greater than 100 µM.
For `Cc1ccc(S(=O)(=O)C2=C3C(=C(c4ccccc4)c4ccccc43)CN(S(=O)(=O)c3ccc(C)cc3)C2)cc1`, the GI50 with BT-549 breast was 1930 nM; with HS 578T breast, 2570 nM; with K-562 leukemia it was 2080 nM; with LOX IMVI melanoma, 1120 nM; in the test on NCI-H23 lung, 3360 nM; with NCI-H522 lung, 2410 nM. Also, the GI50 in the test with OVCAR-5 ovarian is 25.4 µM; in the test with SF-539 CNS it was 10900 nM; in the test on SK-MEL-5 melanoma it was 5040 nM; in the test with U251 CNS, 3010 nM. In addition, the TGI with BT-549 breast is 4.65 µM; with HS 578T breast, 39.9 µM; in the test on K-562 leukemia it was greater than 100 µM; with LOX IMVI melanoma, 2.42 µM; in the test on NCI-H23 lung, 23.7 µM; in the test on NCI-H522 lung, 6.35 µM. The TGI in the test with OVCAR-5 ovarian was greater than 100 µM; with SF-539 CNS, 49000 nM; in the test on SK-MEL-5 melanoma it was 18.3 µM; with U251 CNS, 12.7 µM.
For the compound `COc1cc2c3c(n(CCCN4CCOCC4)c(=O)c2cc1OC)-c1cc2c(cc1C3=O)OCO2`, the GI50 with BT-549 breast is 12600 nM; in the test on HS 578T breast, 71300 nM; in the test on K-562 leukemia, 4540 nM; with NCI-H23 lung it was 1970 nM; with NCI-H522 lung it was 3970 nM; in the test on OVCAR-5 ovarian, 67.5 µM. Also, the GI50 was 165 nM in the test with SF-539 CNS, 1340 nM in the test with SK-MEL-5 melanoma and 3560 nM in the test on U251 CNS. Besides, the TGI is greater than 100 µM in the test on BT-549 breast; greater than 100 µM with HS 578T breast; greater than 100 µM in the test on K-562 leukemia; greater than 35 µM in the test on LOX IMVI melanoma; 27.2 µM in the test on NCI-H23 lung; greater than 100 µM with NCI-H522 lung. Moreover, the TGI in the test on OVCAR-5 ovarian is greater than 100 µM; in the test on SF-539 CNS, 2370 nM; with SK-MEL-5 melanoma it was 12.2 µM; in the test on U251 CNS, greater than 91.6 µM.
As to `O=C(O)c1cn(C2CC2)c2cc(N3CCN(C(=O)Nc4nc(-c5ccc(Cl)cc5)cs4)CC3)c(F)cc2c1=O`, the GI50 in the test with BT-549 breast was 934 nM; with HS 578T breast, 1910 nM; with K-562 leukemia, 2240 nM; with LOX IMVI melanoma, 567 nM; with NCI-H23 lung, 2080 nM; in the test on NCI-H522 lung it was 2550 nM. The GI50 in the test with OVCAR-5 ovarian is 3.4 µM; in the test with SF-539 CNS, 775 nM; in the test with SK-MEL-5 melanoma, 1760 nM; with U251 CNS, 1380 nM. Moreover, the TGI was 25.5 µM with BT-549 breast; 66.1 µM in the test on HS 578T breast; greater than 100 µM with K-562 leukemia; greater than 100 µM with LOX IMVI melanoma; 39.5 µM in the test on NCI-H23 lung; 9.14 µM in the test with NCI-H522 lung. Besides, the TGI was greater than 100 µM with OVCAR-5 ovarian, greater than 100000 nM in the test with SF-539 CNS, 3.92 µM with SK-MEL-5 melanoma and 16.1 µM in the test on U251 CNS.

These data come from PubChem BioAssay (NCI).
